By kcat is commonly meant the number of substrate molecules converted per active site and unit of time at saturation. By Km is commonly meant the concentration of substrate that gives half-maximal velocity.

Data on one molecule can be found in patent US9650616B2, “Methods for increasing grain yield” (University of Florida Research Foundation, Inc., priority 2014, dated 2017).

Assay [1] addresses T1, maize endosperm AGPase, large subunit variant D161G (numbering of SEQ ID NO: 20) (Zea mays, UniProt P55241+Q84PF5, D161G).
T1 sequence (P55241 46-516 D161G): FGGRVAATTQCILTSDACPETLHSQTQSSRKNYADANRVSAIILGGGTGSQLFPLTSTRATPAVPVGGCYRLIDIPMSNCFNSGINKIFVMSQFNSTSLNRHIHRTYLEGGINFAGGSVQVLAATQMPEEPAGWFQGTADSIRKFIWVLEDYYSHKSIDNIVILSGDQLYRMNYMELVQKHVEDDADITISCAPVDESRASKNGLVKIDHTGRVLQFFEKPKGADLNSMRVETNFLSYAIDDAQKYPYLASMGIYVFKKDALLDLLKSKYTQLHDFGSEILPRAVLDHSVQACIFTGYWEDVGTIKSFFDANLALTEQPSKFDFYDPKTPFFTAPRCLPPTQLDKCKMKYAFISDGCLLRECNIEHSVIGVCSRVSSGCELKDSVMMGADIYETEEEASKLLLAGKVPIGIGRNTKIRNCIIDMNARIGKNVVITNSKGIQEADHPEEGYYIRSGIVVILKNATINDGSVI
T1 sequence (Q84PF5 1-474): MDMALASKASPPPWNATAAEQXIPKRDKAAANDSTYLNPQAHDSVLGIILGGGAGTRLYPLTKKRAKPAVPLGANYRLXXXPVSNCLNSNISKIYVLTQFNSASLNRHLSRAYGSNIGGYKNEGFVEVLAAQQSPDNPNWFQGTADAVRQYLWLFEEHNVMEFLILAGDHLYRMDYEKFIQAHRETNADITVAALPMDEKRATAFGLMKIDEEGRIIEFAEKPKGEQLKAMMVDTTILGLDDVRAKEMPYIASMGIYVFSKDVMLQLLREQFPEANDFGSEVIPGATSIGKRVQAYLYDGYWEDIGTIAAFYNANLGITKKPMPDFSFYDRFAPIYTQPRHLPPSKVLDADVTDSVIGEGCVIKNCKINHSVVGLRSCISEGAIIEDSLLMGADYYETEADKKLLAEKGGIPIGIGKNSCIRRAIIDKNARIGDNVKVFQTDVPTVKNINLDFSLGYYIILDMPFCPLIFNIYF
In words: Kinetic constants in the absence of 3-PGA, D161G. In kind it is biochemical. How it is done: Reactions were performed for 10 min and terminated by boiling. Blank mixtures contained everything except ATP.
Based on the kinetic results (Table 10) and catalytic properties at 55° C. (Table 10) both D161G and GGR were selected for a more detailed kinetic analysis. […] The GGR mutant was primarily chosen based on its increased catalytic rate at 37° C. and high performance at 55° C. Its high activity in the absence of 3-PGA was also paramount. The first kinetic parameters determined were the Michaelis constants, the catalytic rate (kcat) and the dissociation constant (Kia) for the E-ATP complex, in the absence of 3-PGA. […] For the wt maize enzyme, this activator primarily responds by reducing the Km for both substrates, with little effect on the reaction rate (Boehlein et al., 2013). […] The kinetic mechanism established ATP as the first substrate to bind, thus the activator is no longer necessary for this first step. […] This variant also conditions both heat stability and high activity in the absence of an activator.

For assay [2], the system named is maize endosperm AGPase, wild type. The conditions noted are these: cited from earlier work.

Read-outs that look alike come from different tables or passages of the source. Some results are limits rather than exact numbers.

As for `Nc1ncnc2c1ncn2[C@@H]1O[C@H](COP(=O)(O)OP(=O)(O)OP(=O)(O)O)[C@@H](O)[C@H]1O` [ATP], the “decrease of Km for ATP compared to wild-type” value in assay [1] is reported as about 100 ×. Moreover, the kcat in assay [1] (ATP varied at fixed G-1-P) came out at 48.8 s⁻¹. Moreover, the Km in assay [1] (read-out: ATP Km) was 0.043 mM; in assay [2] (Maize wt, absence of 3-PGA, ATP varied, Pi inhibition, P-MT, read-out: Km (ATP)), 20.4 mM; in assay [2] (wt maize AGPase, absence of activator, Pi inhibition assay, read-out: Km for both substrates), over 20 mM.
